Measured values as given in patent US20260015357A1, “MODULATORS OF NLRP3 INFLAMMASOME AND RELATED PRODUCTS AND METHODS” (Neumora Therapeutics, Inc., priority 2022, published 2026).

Experiments:
IL-6 = IL-6 in supernatants of LPS-primed, nigericin-treated THP1 macrophages, Hu IL-6 AlphaLISA; type: cell-based; details: Homo sapiens, THP-1, PMA-differentiated, 1 hr compound, Nigericin 6.7 uM 3 hrs, IL-6 in supernatant
Experimental: (§1) NLRP3 Inflammasome Activation and Cell Viability Assessment in THP1 Macrophages
(§2) THP1—Human acute monocytic leukemia cells were cultured (ATCC, cat #TIB-202) in Gibco RPMI-1640 medium (ThermoFisher cat #72400054) supplemented with 10% Heat Inactivated FBS at density between 3-8×10^5 viable cells/mi. The cells were then subcultured when the cell concentration reached 8×10^5 cells/mL (every 2-3 days).
(§3) The parameter wells were filled with 50 ul PBS and incubated at 37° C., 5% CO2 for 48 hrs.
(§4) After 48 hrs incubation, the PMA containing media was removed, and changed for 40 ul/well of fresh DMEM, 10% FBS, 1× GlutaMax and incubated at 37° C., 5% CO2 for 24 hrs.
(§5) The following day the cells were primed with LPS (E. coli) (Sigma, cat #L3129) […] in DMEM, 10% FBS, 1× GlutaMax for 3 hrs at 37° C., 5% CO2.
(§6) Following the LPS priming step, the cells were treated with compounds at 10 uM top final concentration, 1:4 dilution, 8 times: (10 uM, 2.5 uM, 0.625 uM, 0.156 uM, 0.039 uM, 0.0097 uM, 0.0024 uM, 0.0006 uM). DMSO was used as a vehicle control, and MCC950 (InvivoGen, cat #inh-mcc) was used at 1 uM as a positive control, and incubated for 1 hrs at 37° C., 5% CO2.
(§7) Following the 1 hr compound incubation, the NLRP3 inflammasome activation step was conducted by treating cells with Nigericin (InvivoGen, cat #tlrl-nig) at 6.7 uM final concentration for 3 hrs at 37° C., 5% CO2.
(§8) Thereafter, 30 ul samples of cells' supernatants were collected for cytokine analysis which was conducted on Hu IL-1β AlphaLISA (Perkin Elmer, cat #AL220C) and Hu IL-6 AlphaLISA (Perkin Elmer, cat #AL220C). The cells' viability was assessed by performing CellTiter-Glo Luminescent Assay (Promega, cat #G7572) according to the manufacturer's protocol.

NLRP3 inflammasome = biological target: T1, NLRP3 inflammasome (Homo sapiens, UniProt Q96P20); assay: NLRP3 inflammasome activation in LPS-primed, nigericin-activated THP1 macrophages, IL-1β AlphaLISA; type: cell-based; details: PMA-differentiated, 1 hr compound, Nigericin 6.7 uM 3 hrs, IL-1β in supernatant
T1 construct: host or cells: THP1 human acute monocytic leukemia cells, PMA-differentiated, LPS-primed
T1 sequence (Q96P20 whole entry): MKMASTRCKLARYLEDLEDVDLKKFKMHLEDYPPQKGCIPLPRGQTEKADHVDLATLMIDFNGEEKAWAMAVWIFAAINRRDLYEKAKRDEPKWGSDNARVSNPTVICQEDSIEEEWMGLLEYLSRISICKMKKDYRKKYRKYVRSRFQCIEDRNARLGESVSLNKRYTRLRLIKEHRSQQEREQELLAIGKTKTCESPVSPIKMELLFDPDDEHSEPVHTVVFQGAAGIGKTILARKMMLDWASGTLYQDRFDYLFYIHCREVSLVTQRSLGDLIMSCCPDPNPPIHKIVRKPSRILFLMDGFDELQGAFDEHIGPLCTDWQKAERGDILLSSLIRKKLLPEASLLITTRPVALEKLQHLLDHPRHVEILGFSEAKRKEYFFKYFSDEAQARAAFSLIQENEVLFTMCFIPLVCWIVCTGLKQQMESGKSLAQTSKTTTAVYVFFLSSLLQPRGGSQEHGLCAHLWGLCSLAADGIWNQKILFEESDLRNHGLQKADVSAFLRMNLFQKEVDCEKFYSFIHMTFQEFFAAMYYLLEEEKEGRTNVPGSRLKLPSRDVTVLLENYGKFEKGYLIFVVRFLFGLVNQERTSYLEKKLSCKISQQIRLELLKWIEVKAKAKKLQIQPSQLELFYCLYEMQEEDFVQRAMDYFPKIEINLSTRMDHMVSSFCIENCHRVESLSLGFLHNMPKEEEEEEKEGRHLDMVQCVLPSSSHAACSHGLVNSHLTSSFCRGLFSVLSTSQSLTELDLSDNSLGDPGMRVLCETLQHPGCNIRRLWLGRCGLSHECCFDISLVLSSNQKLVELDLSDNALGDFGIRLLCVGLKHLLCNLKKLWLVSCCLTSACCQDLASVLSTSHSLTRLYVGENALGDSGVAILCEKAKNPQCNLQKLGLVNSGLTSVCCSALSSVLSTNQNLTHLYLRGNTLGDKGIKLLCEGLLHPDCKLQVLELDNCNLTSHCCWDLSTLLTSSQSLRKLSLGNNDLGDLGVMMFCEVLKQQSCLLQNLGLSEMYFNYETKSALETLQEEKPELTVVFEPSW
Experimental: as §1, §2, §3, §4, §5, §6, §7, §8

Row | SMILES | IC50 (IL-6) [µM] | IC50 (NLRP3 inflammasome) [µM]
1 | CN1CCC[C@@H](Nc2nnc(-c3ccc(C(F)(F)F)cc3)c3cc[nH]c23)C1 (single isomer, unassigned) [Compound 1] | 1 to 5 | < 0.01
2 | CN1CCC[C@@H](Nc2nnc(-c3ccc(C(F)(F)F)cc3)c3[nH]ccc23)C1 (single isomer, unassigned) [Compound 2] | ≥ 10 | 0.1 to 0.5
3 | CN1CCC[C@@H](Nc2nnc(-c3ccccc3O)c3ccn(C)c23)C1 (single isomer, unassigned) [Compound 17] | ≥ 10 | 0.01 to 0.1
4 | CN1CCC[C@@H](N(C)c2nnc(-c3ccccc3O)c3cc[nH]c23)C1 (single isomer, unassigned) [Compound 24] | 5 to 10 | 0.1 to 0.5
5 | CN1CCC[C@@H](Nc2nnc(-c3ccccc3O)c3c2ccn3C)C1 (single isomer, unassigned) [Compound 67] | ≥ 10 | 0.01 to 0.1
6 | CN1CCC[C@@H](N(C)c2nnc(-c3ccccc3O)c3[nH]ccc23)C1 (single isomer, unassigned) [Compound 68] | 5 to 10 | ≥ 10
7 | Cc1cc(C(F)(F)F)ccc1-c1nnc(N[C@@H]2CCCN(C)C2)c2cc[nH]c12 [Compound 3] | ≥ 10 | 0.5 to 1
8 | CN1CCC[C@@H](Nc2nnc(-c3ccc(F)cc3O)c3cc[nH]c23)C1 [Compound 4] | 5 to 10 | < 0.01
9 | CN1CCC[C@@H](Nc2nnc(-c3ccc(F)cc3)c3cc[nH]c23)C1 [Compound 5] | 1 to 5 | 0.01 to 0.1
10 | Cc1cc(C(F)(F)F)ccc1-c1nnc(N[C@@H]2CCCN(C)C2)c2[nH]ccc12 [Compound 6] | 5 to 10 | < 0.01
11 | CN1CCC[C@@H](Nc2nnc(-c3ccc(F)cc3O)c3[nH]ccc23)C1 [Compound 7] | ≥ 10 | 0.1 to 0.5
12 | CN1CCC[C@@H](Nc2nnc(-c3ccccc3O)c3[nH]ccc23)C1 [Compound 8] | ≥ 10 | 0.1 to 0.5
13 | CN1CCC[C@@H](Nc2nnc(-c3ccc(F)cc3)c3[nH]ccc23)C1 [Compound 9] | ≥ 10 | ≥ 10
14 | CN1CCC[C@@H](Nc2nnc(-c3ccc(Cl)cc3)c3cc[nH]c23)C1 [Compound 10] | 1 to 5 | 0.01 to 0.1
15 | CN1CCC[C@@H](Nc2nnc(-c3ccc(Cl)cc3)c3[nH]ccc23)C1 [Compound 11] | ≥ 10 | 1 to 10
16 | CN1CCC[C@@H](Nc2nnc(-c3ccccc3C(F)F)c3cc[nH]c23)C1 [Compound 12] | ≥ 10 | 0.1 to 0.5
17 | CN1CCC[C@@H](Nc2nnc(-c3ccccc3C(F)F)c3[nH]ccc23)C1 [Compound 13] | ≥ 10 | ≥ 10
18 | CN1CCC[C@@H](Nc2nnc(-c3ccccc3O)c3cc[nH]c23)C1 [Compound 14] | – | < 0.01
19 | CN1CCC[C@@H](Nc2nnc(-c3ccccc3)c3cc[nH]c23)C1 [Compound 15] | – | 0.5 to 1
20 | CN1CCC[C@@H](Nc2nnc(-c3ccc(C(F)(F)F)cc3)c3c2ccn3C)C1 [Compound 69] | – | 0.01 to 0.1
21 | CN1CCC[C@@H](Nc2nnc(-c3ccccc3)c3[nH]ccc23)C1 [Compound 70] | – | ≥ 10
22 | CN1CCC[C@@H](Nc2nnc(-c3ncc(C#N)cc3O)c3cnn(C)c23)C1 [Compound 114] | – | 0.01 to 0.1
23 | CN1CCC[C@@H](Nc2nnc(-c3ccc(C#N)cc3C(F)F)c3ccn(C)c23)C1 [Compound 120] | – | 0.1 to 0.5
24 | CN1CCC[C@@H](Nc2nnc(-c3ccc(C(F)(F)F)cc3C(F)F)c3ccn(C)c23)C1 [Compound 122] | – | < 0.01
25 | Cc1cc(C#N)ccc1-c1nnc(N[C@@H]2CCCN(C)C2)c2c1ccn2C [Compound 125] | – | 0.01 to 0.1
26 | CN1CCC[C@@H](Nc2nnc(-c3ncc(C#N)cc3O)c3ccn(C)c23)C1 [Compound 135] | – | ≥ 10
27 | CN1CCC[C@@H](Nc2nnc(-c3ncc(C#N)cc3Cl)c3cnn(C)c23)C1 [Compound 140] | – | 1 to 10
28 | N#Cc1ccc(-c2nnc(N[C@@H]3CCCN(CCF)C3)c3sncc23)c(O)c1 [Compound 150] | – | 0.01 to 0.1
